ChEMBL document CHEMBL1201862, “PubChem BioAssay data set” (2004)
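All cell lines were grown in 96-well plates and treated with compound for 48 hours. Here, GI50 denotes the concentration required for 50% inhibition of growth.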 Calls of active or inactive are those of the source. No stated cut-off is given here; in the data, active = GI50 up to about 1.1 µM and inactive = higher.

Assays:
Assay in all cases: NCI tumour cell line growth inhibition, 48 h
MCF7 = system: MCF7
HCC 2998 = system: HCC 2998
OVCAR-4 = system: OVCAR-4
EKVX = system: EKVX
DU-145 = system: DU-145
M14 = system: M14
OVCAR-8 = system: OVCAR-8
T47D = system: T47D
HOP-62 = system: HOP-62
SN12C = system: SN12C
Hs-578T = system: Hs-578T
SF-268 = system: SF-268
OVCAR-3 = system: OVCAR-3
SF-295 = system: SF-295
UACC-257 = system: UACC-257
ACHN = system: ACHN
SNB-75 = system: SNB-75
A498 = system: A498
786-0 = system: 786-0
TK-10 = system: TK-10
SR = system: SR
MOLT-4 = system: MOLT-4
HCT-15 = system: HCT-15
NCI-H226 = system: NCI-H226
OVCAR-5 = system: OVCAR-5
HL-60 = system: HL-60
SK-MEL-2 = system: SK-MEL-2
NCI-H522 = system: NCI-H522
HOP-92 = system: HOP-92
NCI-H460 = system: NCI-H460
U-251 = system: U-251
PC-3 = system: PC-3
SK-MEL-5 = system: SK-MEL-5
SF-539 = system: SF-539
UO-31 = system: UO-31
IGROV-1 = system: IGROV-1
NCI-H23 = system: NCI-H23
Malme-3M = system: Malme-3M
MDA-MB-435 = system: MDA-MB-435
SW-620 = system: SW-620
CCRF-CEM = system: CCRF-CEM
NCI/ADR-RES = system: NCI/ADR-RES
MDA-N = system: MDA-N
K562 = system: K562
BT-549 = system: BT-549
COLO 205 = system: COLO 205
UACC-62 = system: UACC-62
A549 = system: A549
RXF 393 = system: RXF 393
SNB-19 = system: SNB-19
HCT-116 = system: HCT-116
SK-OV-3 = system: SK-OV-3
MDA-MB-231 = system: MDA-MB-231
CAKI-1 = system: CAKI-1
KM12 = system: KM12
LOX IMVI = system: LOX IMVI
SK-MEL-28 = system: SK-MEL-28
RPMI-8226 = system: RPMI-8226

O=S(=O)(O)c1ccc2cccc(/N=N\c3c(O)ccc4ccccc34)c2c1
GI50 (MCF7): > 100 µM (inactive) | GI50 (HCC 2998): > 100 µM (inactive) | GI50 (OVCAR-4): > 100 µM (inactive) | GI50 (EKVX): > 100 µM (inactive) | GI50 (DU-145): > 100 µM (inactive) | GI50 (M14): > 100 µM (inactive) | GI50 (OVCAR-8): > 100 µM (inactive) | GI50 (T47D): > 100 µM (inactive) | GI50 (HOP-62): > 100 µM (inactive) | GI50 (SN12C): > 100 µM (inactive) | GI50 (Hs-578T): > 100 µM (inactive) | GI50 (SF-268): > 100 µM (inactive) | GI50 (OVCAR-3): > 100 µM (inactive) | GI50 (SF-295): > 100 µM (inactive) | GI50 (UACC-257): > 100 µM (inactive) | GI50 (ACHN): > 100 µM (inactive) | GI50 (SNB-75): > 100 µM (inactive) | GI50 (A498): > 100 µM (inactive) | GI50 (786-0): > 100 µM (inactive) | GI50 (TK-10): > 100 µM (inactive) | GI50 (SR): > 100 µM (inactive) | GI50 (MOLT-4): > 100 µM (inactive) | GI50 (HCT-15): > 100 µM | GI50 (NCI-H226): > 100 µM (inactive) | GI50 (OVCAR-5): > 100 µM (inactive) | GI50 (HL-60): > 100 µM (inactive) | GI50 (SK-MEL-2): > 100 µM (inactive) | GI50 (NCI-H522): > 100 µM (inactive) | GI50 (HOP-92): > 100 µM (inactive) | GI50 (NCI-H460): > 100 µM (inactive) | GI50 (U-251): > 100 µM (inactive) | GI50 (PC-3): > 100 µM (inactive) | GI50 (SK-MEL-5): > 100 µM (inactive) | GI50 (SF-539): > 100 µM (inactive) | GI50 (UO-31): > 100 µM (inactive) | GI50 (IGROV-1): > 100 µM (inactive) | GI50 (NCI-H23): > 100 µM (inactive) | GI50 (Malme-3M): > 100 µM (inactive) | GI50 (MDA-MB-435): > 100 µM (inactive) | GI50 (SW-620): > 100 µM (inactive) | GI50 (CCRF-CEM): > 100 µM (inactive) | GI50 (NCI/ADR-RES): > 100 µM (inactive) | GI50 (MDA-N): > 100 µM (inactive) | GI50 (K562): > 100 µM (inactive) | GI50 (BT-549): > 100 µM (inactive) | GI50 (COLO 205): > 100 µM (inactive) | GI50 (UACC-62): > 100 µM (inactive) | GI50 (A549): > 100 µM (inactive) | GI50 (RXF 393): > 100 µM (inactive) | GI50 (SNB-19): > 100 µM (inactive) | GI50 (HCT-116): > 100 µM (inactive) | GI50 (SK-OV-3): > 100 µM (inactive) | GI50 (MDA-MB-231): > 100 µM (inactive) | GI50 (CAKI-1): > 100 µM (inactive) | GI50 (KM12): > 100 µM (inactive)

CC(C)=CCC[C@@H](C)/C=C/C=C(\C)C(=O)CC[C@@H]1CC[N@+]2(C)CCCC[C@H]12
GI50 (LOX IMVI): 35.2 µM (inactive) | GI50 (MCF7): > 100 µM (inactive) | GI50 (HCC 2998): > 100 µM (inactive) | GI50 (OVCAR-4): > 100 µM (inactive) | GI50 (EKVX): > 100 µM (inactive) | GI50 (DU-145): > 100 µM (inactive) | GI50 (M14): > 100 µM (inactive) | GI50 (OVCAR-8): > 100 µM (inactive) | GI50 (T47D): > 100 µM (inactive) | GI50 (HOP-62): > 100 µM (inactive) | GI50 (SN12C): > 100 µM (inactive) | GI50 (Hs-578T): 96.4 µM (inactive) | GI50 (SF-268): 71.1 µM (inactive) | GI50 (OVCAR-3): 32.9 µM (inactive) | GI50 (SK-MEL-28): > 100 µM (inactive) | GI50 (RPMI-8226): 70 µM (inactive) | GI50 (SF-295): > 100 µM (inactive) | GI50 (UACC-257): > 100 µM (inactive) | GI50 (ACHN): > 100 µM (inactive) | GI50 (SNB-75): 49.2 µM (inactive) | GI50 (A498): > 100 µM (inactive) | GI50 (786-0): > 100 µM (inactive) | GI50 (TK-10): > 100 µM (inactive) | GI50 (SR): > 100 µM (inactive) | GI50 (MOLT-4): > 100 µM (inactive) | GI50 (HCT-15): > 100 µM | GI50 (NCI-H226): 4.47 µM (inactive) | GI50 (OVCAR-5): 50.4 µM (inactive) | GI50 (SK-MEL-2): > 100 µM (inactive) | GI50 (NCI-H522): 35 µM (inactive) | GI50 (HOP-92): 6.44 µM (inactive) | GI50 (NCI-H460): > 100 µM (inactive) | GI50 (U-251): 23.9 µM (inactive) | GI50 (PC-3): 31 µM (inactive) | GI50 (SK-MEL-5): > 100 µM (inactive) | GI50 (SF-539): > 100 µM (inactive) | GI50 (UO-31): > 100 µM (inactive) | GI50 (IGROV-1): 55.1 µM (inactive) | GI50 (NCI-H23): > 100 µM (inactive) | GI50 (Malme-3M): 79.8 µM (inactive) | GI50 (MDA-MB-435): > 100 µM (inactive) | GI50 (SW-620): > 100 µM (inactive) | GI50 (NCI/ADR-RES): > 100 µM (inactive) | GI50 (MDA-N): > 100 µM (inactive) | GI50 (K562): 49.9 µM (inactive) | GI50 (BT-549): 65.6 µM (inactive) | GI50 (COLO 205): 81.3 µM (inactive) | GI50 (UACC-62): > 100 µM (inactive) | GI50 (A549): > 100 µM (inactive) | GI50 (RXF 393): 35.1 µM (inactive) | GI50 (SNB-19): 31.3 µM (inactive) | GI50 (HCT-116): > 100 µM (inactive) | GI50 (MDA-MB-231): > 100 µM (inactive) | GI50 (CAKI-1): > 100 µM (inactive) | GI50 (KM12): > 100 µM (inactive)
